Five molecules from PubChem BioAssay AID2060884 (Molecular Pharmacology Branch, DTP, NCI, 2025) can be followed below.

As usually defined, the IC50 is the concentration that gives 50% inhibition. As a reminder, the viability, T/C is the result in the treated group divided by that in the control group, in per cent.

The test deals with NCI-H929 complex spheroids, viability % test/control. Kind of test: Anticancer human tumor NCI-H929 cell line growth inhibition [RAS].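 As to all read-outs here: compound exposure lasted seven days before viability was read.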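 As to viability, T/C: 100% = DMSO vehicle control viability.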 Particulars: for viability, T/C: stronger effect = lower value. The procedure, abridged: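 Tumour cells grown as complex spheroids with HUVEC endothelial cells and mesenchymal stem cells, treated with RAS pathway inhibitor combinations. Each agent spans half-log steps from near clinical Cmax, or 10 microM where Cmax is unknown.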

Where [1] appears, read: curve of first compound, second compound 0.0316 µM.
[2] abbreviates: curve of first compound, second compound 0.1 µM.
Where [3] appears, read: curve of first compound, second compound 0.316 µM.
Setting [4] is: curve of first compound, second compound 1 µM.
Setting [5] is: curve of first compound, second compound 3.16 µM.
The mark [6] stands for this setting: curve of first compound, second compound 10 µM.
[7] abbreviates: second compound 0.0316 µM, first compound 0.00316 µM.
The mark [8] stands for this setting: second compound 0.0316 µM, first compound 0.01 µM.
Where [9] appears, read: second compound 0.0316 µM, first compound 0.0316 µM.
Where [10] appears, read: second compound 0.0316 µM, first compound 0.1 µM.
Where [11] appears, read: second compound 0.0316 µM, first compound 0.316 µM.
[12] abbreviates: second compound 0.0316 µM, first compound 1 µM.
Where [13] appears, read: second compound 0.1 µM, first compound 0.00316 µM.
Where [14] appears, read: second compound 0.1 µM, first compound 0.01 µM.
The mark [15] stands for this setting: second compound 0.1 µM, first compound 0.0316 µM.
The mark [16] stands for this setting: second compound 0.1 µM, first compound 0.1 µM.
[17] abbreviates: second compound 0.1 µM, first compound 0.316 µM.
Setting [18] is: second compound 0.1 µM, first compound 1 µM.
The mark [19] stands for this setting: second compound 0.316 µM, first compound 0.00316 µM.
[20] abbreviates: second compound 0.316 µM, first compound 0.01 µM.
Setting [21] is: second compound 0.316 µM, first compound 0.0316 µM.
Setting [22] is: second compound 0.316 µM, first compound 0.1 µM.
[23] abbreviates: second compound 0.316 µM, first compound 0.316 µM.
Where [24] appears, read: second compound 0.316 µM, first compound 1 µM.
[25] abbreviates: second compound 1 µM, first compound 0.00316 µM.
[26] abbreviates: second compound 1 µM, first compound 0.01 µM.
[27] abbreviates: second compound 1 µM, first compound 0.0316 µM.
[28] abbreviates: second compound 1 µM, first compound 0.1 µM.
Where [29] appears, read: second compound 1 µM, first compound 0.316 µM.
[30] abbreviates: second compound 1 µM, first compound 1 µM.
Setting [31] is: second compound 3.16 µM, first compound 0.00316 µM.
Where [32] appears, read: second compound 3.16 µM, first compound 0.01 µM.
[33] abbreviates: second compound 3.16 µM, first compound 0.0316 µM.
Setting [34] is: second compound 3.16 µM, first compound 0.1 µM.
Setting [35] is: second compound 3.16 µM, first compound 0.316 µM.
Setting [36] is: second compound 3.16 µM, first compound 1 µM.
The mark [37] stands for this setting: second compound 10 µM, first compound 0.00316 µM.
The mark [38] stands for this setting: second compound 10 µM, first compound 0.01 µM.
[39] abbreviates: second compound 10 µM, first compound 0.0316 µM.
Where [40] appears, read: second compound 10 µM, first compound 0.1 µM.
Where [41] appears, read: second compound 10 µM, first compound 0.316 µM.
[42] abbreviates: second compound 10 µM, first compound 1 µM.

Values joined by “and” are separate entries in the source; they are usually repeats but may differ in a detail not shown here. Equal values may be shown once.

`C=CC(=O)N1CCN(c2nc(OCC3CCCN3C)nc3c(F)c(-c4nc(N)cc(C)c4C(F)(F)F)c(Cl)cc23)C(C)C1` (configuration not stated) + C#Cc1c(F)ccc2cc(O)cc(-c3ncc4c(N5CC6CCC(C5)N6)nc(OCC56CCCN5CC(F)C6)nc4c3F)c12: the IC50 reads like this: under setting [1], > 1000 nM; under setting [2], > 1000 nM; under setting [3], > 1000 nM; under setting [4], > 1000 nM; under setting [5], > 1000 nM; under setting [6], > 1000 nM. The viability, T/C runs as follows: under setting [7], 102%; under setting [8], 97.5%; under setting [9], 99.1%; under setting [10], 97.3%; under setting [11], 108%; under setting [12], 103%. Besides, the viability, T/C was 98.8% under setting [13]; 101% under setting [14]; 102% under setting [15]; 106% under setting [16]; 107% under setting [17]; 112% under setting [18]. For the same molecule, the viability, T/C was 96.1% under setting [19]; 104% under setting [20]; 101% under setting [21]; 104% under setting [22]; 106% under setting [23]; 110% under setting [24]. The viability, T/C is 95.8% under setting [25]; 104% under setting [26]; 107% under setting [27]; 105% under setting [28]; 101% under setting [29]; 112% under setting [30]. Besides, the viability, T/C runs as follows: under setting [31], 103%; under setting [32], 99.8%; under setting [33], 103%; under setting [34], 104%; under setting [35], 106%; under setting [36], 115%. The viability, T/C runs as follows: under setting [37], 104%; under setting [38], 101%; under setting [39], 100%; under setting [40], 105%; under setting [41], 99.6%; under setting [42], 104%.
For the molecule `Nc1ccn(C2OC(CO)C(O)C2(F)F)c(=O)n1` (configuration not stated) + C#Cc1c(F)ccc2cc(O)cc(-c3ncc4c(N5CC6CCC(C5)N6)nc(OCC56CCCN5CC(F)C6)nc4c3F)c12, the half-maximal inhibitory concentration (IC50) by setting is: under setting [1], 18.2 nM; under setting [2], 18.5 nM; under setting [3], 18.5 nM; under setting [4], 18.1 nM; under setting [5], 18.5 nM; under setting [6], 17.8 nM. Besides, the viability, T/C reads like this: under setting [7], 97.9%; under setting [8], 106%; under setting [9], 1.73%; under setting [10], 1.71%; under setting [11], 1.77%; under setting [12], 0.97%. Further, the viability, T/C is, setting by setting: under setting [13], 99.5%; under setting [14], 111%; under setting [15], 2.14%; under setting [16], 1.9%; under setting [17], 0.95%; under setting [18], 1.51%. For the same molecule, the viability, T/C by setting is: under setting [19], 102%; under setting [20], 106%; under setting [21], 2.97%; under setting [22], 2.03%; under setting [23], 1.39%; under setting [24], 1.19%. Moreover, the viability, T/C runs as follows: under setting [25], 97.4%; under setting [26], 105%; under setting [27], 1.48%; under setting [28], 1.24%; under setting [29], 0.95%; under setting [30], 0.85%. Further, the viability, T/C under setting [31] is 97.4%; the viability, T/C under setting [32] is 108%; the viability, T/C under setting [33] is 3.7%; the viability, T/C under setting [34] is 1.57%; the viability, T/C under setting [35] is 1.67%; the viability, T/C under setting [36] was 1.18%. Also, the viability, T/C was 102% under setting [37]; 97.2% under setting [38]; 2.56% under setting [39]; 1.28% under setting [40]; 1.24% under setting [41]; 0.87% under setting [42].
For the molecule `CCN1CCN(Cc2ccc(Nc3ncc(F)c(-c4cc(F)c5nc(C)n(C(C)C)c5c4)n3)nc2)CC1`, the viability, T/C (compound 0.00316 µM) was 106% [middle of 4 runs]; the viability, T/C (compound 0.01 µM) was 101% (2×) and 100% and 102%; the viability, T/C (compound 0.0316 µM) was 108% [middle of 4 runs]; the viability, T/C (compound 0.1 µM) was 107% (2×) and 98.7% and 108%; the viability, T/C (compound 0.316 µM) is 117% (2×) and 102% and 115%. Also, the IC50 (curve of compound) was > 1000 nM and 774 nM and 695 nM.
As to `Cc1nc(N2CCC3(CC2)COC(C)C3N)c(CO)nc1Sc1ccnc(N)c1Cl` (configuration not stated), the viability, T/C reads like this: (compound 0.0316 µM) 110% [middle of 4 runs]; (compound 0.1 µM) 99% [middle of 4 runs]; (compound 0.316 µM) 107% [middle of 4 runs]; (compound 1 µM) 100% [middle of 4 runs]; (compound 3.16 µM) 105% [middle of 4 runs]; (compound 10 µM) 103% [middle of 4 runs]. The IC50 (curve of compound) is > 10000 nM.
As to `O=C(c1ccc(F)c(F)c1Nc1ccc(I)cc1F)N1CC(O)([C@@H]2CCCCN2)C1`, the viability, T/C reads like this: (compound 0.00316 µM) 105% [middle of 4 runs]; (compound 0.01 µM) 95.4% [middle of 4 runs]; (compound 0.1 µM) 96.1% [middle of 4 runs]; (compound 0.316 µM) 115% [middle of 4 runs]. Further, the concentration for half-maximal inhibition (IC50) (curve of compound) was > 1000 nM and 672 nM and 724 nM.
